These results are taken from ChEMBL document CHEMBL3596126, “Synthesis, molecular docking and anticancer studies of peptides and iso-peptides” (Bioorg Med Chem Lett, 2015).

The target of series [1] is NAD(P)H dehydrogenase [quinone] 1 (Mus musculus) (UniProt Q64669). The series can be described thus: Activation of Quinone reductase-1 in mouse Hepa-1c1c7 cells assessed as induction ratio at 20 ug/ml after 48 hrs by MTT assay. The series is classed as cell-based.
A further series has as its system MCF7. The series can be described thus: Cytotoxicity against human MCF7 cells assessed as cell survival at 20 ug/ml relative to control. It is filed as functional. The note with it: read-out: Survival.
The test system of the next series is MDA-MB-231. The series can be described thus: Cytotoxicity against human MDA-MB-231 cells assessed as cell survival at 20 ug/ml relative to control. It is filed as functional. The note with it: read-out: Survival.
A short description of series [2]: Cytotoxicity against HEK293 cells assessed as cell survival at 20 ug/ml after 6 hrs by SRB assay relative to control. It is filed as cell-based. The note with it: human, read-out: Survival.
The subject of another series is HEK293. The series can be described thus: Inhibition of TNF-alpha activated nuclear factor-kappa B in HEK293 cells at 20 ug/ml after 6 hrs by luciferase reporter gene assay relative to control. The series is classed as cell-based. Particulars: Homo sapiens.
Series [3] is described as follows: Inhibition of TNF-alpha activated nuclear factor-kappa B in HEK293 cells after 6 hrs by luciferase reporter gene assay. It is filed as cell-based. Particulars: Homo sapiens, HEK293, 6 h. On the technique in general: A reporter such as luciferase makes a cellular process visible.

Structures are written as SMILES. Where a SMILES comes first, the peptide text is derived from it. Side-chain parts run from the residue outwards. The star is where a group is joined. Cbz = O=C(OCc1ccccc1)*; Boc = CC(C)(C)OC(=O)*

Sequence of NAD(P)H dehydrogenase [quinone] 1 (Mus musculus) (Q64669 whole entry): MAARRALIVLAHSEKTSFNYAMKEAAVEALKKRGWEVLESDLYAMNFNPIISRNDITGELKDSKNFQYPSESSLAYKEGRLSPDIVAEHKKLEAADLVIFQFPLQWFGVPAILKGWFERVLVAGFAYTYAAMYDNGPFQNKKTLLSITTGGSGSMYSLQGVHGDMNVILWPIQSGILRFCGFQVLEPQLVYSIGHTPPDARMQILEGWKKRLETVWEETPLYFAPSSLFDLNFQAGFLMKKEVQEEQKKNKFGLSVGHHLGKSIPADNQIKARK

As a reminder, the inhibition is the change of the read-out against control, counted positive when it falls. In the case of `CC(C)(C)OC(=O)NCC(=O)OC[C@H](NC(=O)[C@H](Cc1ccccc1)NC(=O)OCc1ccccc1)C(=O)O`, the Ratio in series [1] was 1.1. Besides, the viability at 20 µg/mL is 142% in the series on MCF7 and 92.1% in the series with MDA-MB-231. The viability at 6 h, 20 ug/ml in series [2] is 136%. The inhibition with HEK293 was -5.2%.
As for `CC(C)(C)OC(=O)NCC(=O)n1nnc2ccccc21`, in series [1], the Ratio is 1.1. The viability at 20 µg/mL in the series with MCF7 was 90.3%; in the series with MDA-MB-231, 108%. In addition, the viability at 6 h, 20 ug/ml in series [2] was determined as 110%. In addition, the inhibition in the series with HEK293 was 41.3%.
For `O=C(N[C@@H](Cc1ccccc1)C(=O)N[C@@H](CO)C(=O)O)OCc1ccccc1` the same measures were 1.2, 75.8%, 99.9%, 119% and 18.3%.
The corresponding values for `C[C@H](NC(=O)OCc1ccccc1)C(=O)N[C@@H](Cc1ccccc1)C(=O)O` are 1.1, 63.9%, 98.9%, 113% and 18.7%.
The corresponding values for `C[C@H](NC(=O)OCc1ccccc1)C(=O)N[C@@H](Cc1ccccc1)C(=O)n1nnc2ccccc21` are 1.2, 59.3%, 91.4%, 104% and 49.6%.
As to `C[C@H](NC(=O)OCc1ccccc1)C(=O)N[C@@H](COC(=O)CNC(=O)OC(C)(C)C)C(=O)O` (Cbz-Ala-Ser([Gly-Boc])-OH), the Ratio in series [1] was 2.5. The viability at 20 µg/mL in the series with MCF7 was found to be 110%; with MDA-MB-231, 104%. In series [2], the viability at 6 h, 20 ug/ml turned out to be 108%. Moreover, the inhibition in the series with HEK293 came out at 22%.
Regarding `C[C@H](OC(=O)CNC(=O)OC(C)(C)C)[C@H](NC(=O)[C@H](Cc1ccccc1)NC(=O)OCc1ccccc1)C(=O)O`, the Ratio in series [1] stood at 0.9. Also, the viability at 20 µg/mL stood at 114% in the series on MCF7 and 83.9% with MDA-MB-231. In series [2], the viability at 6 h, 20 ug/ml was determined as 122%. Besides, the inhibition in the series on HEK293 was -4.1%.
Take `C[C@H](O)[C@H](NC(=O)[C@H](Cc1ccccc1)NC(=O)OCc1ccccc1)C(=O)O`: in series [1], the Ratio was 2.2. The results for the viability at 20 µg/mL with MCF7 and in the series on MDA-MB-231 were 58.3% and 104%, respectively. In addition, in series [2], the viability at 6 h, 20 ug/ml turned out to be 122%. In the series with HEK293, the inhibition came to 55.7%.
For `C[C@H](NC(=O)OCc1ccccc1)C(=O)N[C@@H](CO)C(=O)O` the same measures were 1.1, 78.6%, 98.1%, 110% and 13.9%.
For `c1ccc2[nH]nnc2c1` [BENZOTRIAZOLE], in series [1], the Ratio was found to be 1.2. The figures for the viability at 20 µg/mL in the series with MCF7 and in the series with MDA-MB-231 were 104% and 103%, respectively. Besides, the viability at 6 h, 20 ug/ml in series [2] came to 99.7%. Besides, the inhibition in the series with HEK293 was 3.6%.
In the case of `C[C@H](NC(=O)OC(C)(C)C)C(=O)n1nnc2ccccc21`, the Ratio in series [1] turned out to be 1.2. In addition, the viability at 20 µg/mL amounted to 75.8% with MCF7 and 90.9% in the series on MDA-MB-231. Also, the viability at 6 h, 20 ug/ml in series [2] was determined as 122%. In the series with HEK293, the inhibition came out at 35.7%.
Take `C[C@H](NC(=O)OCc1ccccc1)C(=O)n1nnc2ccccc21`: the Ratio in series [1] stood at 1. Further, the viability at 20 µg/mL worked out at 104% with MCF7 and 106% with MDA-MB-231. Further, the viability at 6 h, 20 ug/ml in series [2] turned out to be 126%. In addition, the inhibition in the series with HEK293 was determined as 32.6%.
As to `CC(C)(C)OC(=O)NCC(=O)OC[C@@H](NC(=O)[C@H](Cc1ccccc1)NC(=O)OCc1ccccc1)C(=O)O`, in series [1], the Ratio amounted to 1.1. Moreover, the viability at 20 µg/mL in the series with MCF7 was 126%; in the series on MDA-MB-231 it was 106%. Moreover, the viability at 6 h, 20 ug/ml in series [2] came to 121%. Moreover, the inhibition with HEK293 turned out to be 10.1%.
Consider `C[C@H](NC(=O)OCc1ccccc1)C(=O)N[C@H](C(=O)O)[C@H](C)O`, for which the Ratio in series [1] turned out to be 1.7. In addition, the viability at 20 µg/mL is 106% in the series on MCF7 and 92.8% in the series on MDA-MB-231. The viability at 6 h, 20 ug/ml in series [2] worked out at 116%.
The term IC50 denotes the concentration needed to halve the response being measured. Read a low IC50 as higher potency. `Cc1ccc(S(=O)(=O)N[C@@H](Cc2ccccc2)C(=O)CCl)cc1` [TPCK] gave an IC50 in series [3] of 5.05 µM.
For the molecule `C[C@H](NC(=O)OCc1ccccc1)C(=O)N[C@H](CO)C(=O)O`, the Ratio in series [1] was 0.9. For the same molecule, the viability at 20 µg/mL with MCF7 came out at 66.3%; in the series on MDA-MB-231, 94.9%. Further, in series [2], the viability at 6 h, 20 ug/ml worked out at 123%. Further, the inhibition in the series with HEK293 amounted to 10.7%.
On to `O=C(N[C@@H](Cc1ccccc1)C(=O)NCC(=O)n1nnc2ccccc21)OCc1ccccc1`, for which, in series [1], the Ratio was 0.9. The viability at 20 µg/mL turned out to be 93.2% in the series with MCF7 and 106% in the series with MDA-MB-231. For the same molecule, the viability at 6 h, 20 ug/ml in series [2] amounted to 96.9%. In the series on HEK293, the inhibition came to 12.2%.
Turning to `CC(C)(C)OC(=O)NCC(=O)OC[C@H](NC(=O)[C@@H](N)Cc1ccccc1)C(=O)O` (H-Phe-Ser([Gly-Boc])-OH), the Ratio in series [1] is 2.4. For the same molecule, the viability at 20 µg/mL in the series with MCF7 was determined as 104%; in the series on MDA-MB-231 it was 99.4%. The viability at 6 h, 20 ug/ml in series [2] was determined as 121%. Moreover, the inhibition with HEK293 turned out to be 14.8%.
In the case of `C[C@H](OC(=O)CNC(=O)OC(C)(C)C)[C@H](NC(=O)[C@@H](N)Cc1ccccc1)C(=O)O`, the Ratio in series [1] came out at 1. Further, the figures for the viability at 20 µg/mL in the series on MCF7 and with MDA-MB-231 were 93.8% and 93.9%, respectively. In addition, the viability at 6 h, 20 ug/ml in series [2] worked out at 103%. The inhibition with HEK293 was 26.3%.
Regarding `O=C(N[C@@H](Cc1ccccc1)C(=O)n1nnc2ccccc21)OCc1ccccc1`, the Ratio in series [1] was determined as 1.3. Further, the viability at 20 µg/mL worked out at 74.2% in the series on MCF7 and 98% with MDA-MB-231. In addition, in series [2], the viability at 6 h, 20 ug/ml is 104%.
For the molecule `O=C(N[C@@H](Cc1ccccc1)C(=O)N[C@H](CO)C(=O)O)OCc1ccccc1`, the Ratio in series [1] stood at 1.5. Further, the viability at 20 µg/mL in the series with MCF7 turned out to be 69.5%; in the series on MDA-MB-231, 97.4%. Further, in series [2], the viability at 6 h, 20 ug/ml was 122%. For the same molecule, in the series on HEK293, the inhibition was 24.5%.
